We go through two molecules from article PMC5055185, “Dual pharmacological inhibition of glutathione and thioredoxin systems synergizes to kill colorectal carcinoma stem cells” (Cancer Medicine, 2016).

Entries after “also recorded” stand apart in the source; their conditions may differ.

Common to all, as to assay type: cell-based, human
What all share (conditions): treated 1 h (menadione 100 μmol/L, 30 min)

In one experiment the test system is DLD‐1 CRC cell line. Nature of the experiment: intracellular ROS, CellROX Deep Red flow cytometry, DLD-1. As to the method:
In order to estimate the effect of each inhibitor described above, intracellular reactive oxygen species (ROS) were measured using CellROX™ Deep Red reagent (Molecular Probes). Briefly, cells were seeded on 6‐well plates at 1 × 10^6 cells per well. After cells reached 90% confluence, cells were treated with designated reagents for 1 h. CellROX™ Deep Red reagent was added at a final concentration of 5 μmol/L to the culture medium and then incubated for 30 min at 37°C. Subsequently, the medium was removed and the cells were washed with PBS and detached using 0.25% trypsin‐EDTA. The resulting fluorescence was measured using a FACS Calibur flow cytometer (Becton Dickinson, Franklin Lakes, NJ). Menadione (100 μmol/L) was added 30 min before CellROX™ Deep Red reagent treatment as a reference ROS inducer. […] CD44v9 positivity of CTOS cells was analyzed as follows: Cancer spheroids were dispersed with serial treatments of TrypLE™ (20 min, GIBCO) and Accumax™ (10 min, Innovative Cell Technologies, San Diego, CA). Cell surface CD44v9 was stained with CD44v9 antibody (Cosmobio) as well as PE‐conjugated anti‐rat IgG2a (Becton Dickinson). The fluorescence was measured using a FACS Calibur flow cytometer (Becton Dickinson). […]
One hour after each drug treatment, cells were stained with CellROX DeepRed and intracellular ROS were quantified with FACS. […]

Experiment [1] relates to OUMS‐36 embryonic fibroblasts. The experiment in a line: intracellular ROS, CellROX Deep Red flow cytometry, OUMS-36. As for the experimental part: (§1) In order to estimate the effect of each inhibitor described above, intracellular reactive oxygen species (ROS) were measured using CellROX™ Deep Red reagent (Molecular Probes). Briefly, cells were seeded on 6‐well plates at 1 × 10^6 cells per well. After cells reached 90% confluence, cells were treated with designated reagents for 1 h. CellROX™ Deep Red reagent was added at a final concentration of 5 μmol/L to the culture medium and then incubated for 30 min at 37°C. Subsequently, the medium was removed and the cells were washed with PBS and detached using 0.25% trypsin‐EDTA. The resulting fluorescence was measured using a FACS Calibur flow cytometer (Becton Dickinson, Franklin Lakes, NJ). Menadione (100 μmol/L) was added 30 min before CellROX™ Deep Red reagent treatment as a reference ROS inducer. […] CD44v9 positivity of CTOS cells was analyzed as follows: Cancer spheroids were dispersed with serial treatments of TrypLE™ (20 min, GIBCO) and Accumax™ (10 min, Innovative Cell Technologies, San Diego, CA). Cell surface CD44v9 was stained with CD44v9 antibody (Cosmobio) as well as PE‐conjugated anti‐rat IgG2a (Becton Dickinson). The fluorescence was measured using a FACS Calibur flow cytometer (Becton Dickinson). Since CTOSs contained abundant auto‐fluorescent cells, we defined FL2^+FL1^− cells as authentic PE‐positive (Fig. S4). Thus, CD44v9‐positive rate was defined as FL2^+FL1^−/total live cells and CD44v9‐positive fraction was further gated and split between CD44v9^low and CD44v9^high (Fig. S4), to calculate the mean fluorescent intensity of CD44v9^high fraction.
(§2) One hour after each drug treatment, cells were stained with CellROX DeepRed and intracellular ROS were quantified with FACS. Upper: histogram of fluorescent signal is represented. Lower. representative mean fluorescent intensity scores are shown. Note that without drug treatment (Control), intracellular ROS is higher in OUMS36 and TIG3 (embryonic fibroblasts) but lower in DLD-1 and HCT116 (CRC cell lines). ROS in DLD-1 was increased by auranofin. ROS in HCT116 was increased by all the inhibitors tested. […]
For orientation: In flow cytometry, cells or beads pass a laser one at a time.

For experiment [2], the system named is TIG‐3 embryonic fibroblasts. The experiment in a line: intracellular ROS, CellROX Deep Red flow cytometry, TIG-3. As to the method:
as §1, §2

As for `CC[PH](CC)(CC)[Au][S][C@@H]1O[C@H](COC(C)=O)[C@@H](OC(C)=O)[C@H](OC(C)=O)[C@H]1OC(C)=O` [Aura, Auranofin], the “intracellular ROS response” value with DLD‐1 CRC cell line is “increased; also recorded: increase of ROS”.
Consider `COc1cc(/C=C/C(=O)N2CCC=CC2=O)cc(OC)c1OC` [Pipe, Piperlongumine], for which the “intracellular ROS response” value in experiment [1] and in experiment [2] was “no ROS increase” in each case.
